# Laboratory results published in US20260263449A1, “METHODS AND COMPOSITIONS FOR TREATING COCAINE ADDICTION” (The Jackson Laboratory, priority 2023, published 2026).
# Entries after “also recorded” stand apart in the source; their conditions may differ. Read-outs that look alike come from different tables or passages of the source.
# How the values were obtained:
# guinea pigs = conditions: cited from earlier work
# mice addicted to cocaine = test: cocaine intravenous self-administration (IVSA) in cocaine-addicted mice; format: in vivo
# Description: The efficacy of PNU-109291 treatment in mice addicted to cocaine was tested. Mice first acquired cocaine IVSA at 0.75 mg/kg cocaine per dose at a fixed-ratio-1 reinforcement schedule, then a fixed-ratio-5 schedule until they stabilized their drug-taking behavior. The animals were then injected with descending doses of PNU-109291 prior to IVSA sessions. Doses of PNU-109291 were separated by vehicle injection, and vehicle-first versus agonist-first order was randomized and counterbalanced.
# 5-HT1A receptor = biological target: T1, 5-HT1A receptor (Homo sapiens, UniProt P08908); conditions: cited from earlier work
# T1 sequence (P08908 1-422): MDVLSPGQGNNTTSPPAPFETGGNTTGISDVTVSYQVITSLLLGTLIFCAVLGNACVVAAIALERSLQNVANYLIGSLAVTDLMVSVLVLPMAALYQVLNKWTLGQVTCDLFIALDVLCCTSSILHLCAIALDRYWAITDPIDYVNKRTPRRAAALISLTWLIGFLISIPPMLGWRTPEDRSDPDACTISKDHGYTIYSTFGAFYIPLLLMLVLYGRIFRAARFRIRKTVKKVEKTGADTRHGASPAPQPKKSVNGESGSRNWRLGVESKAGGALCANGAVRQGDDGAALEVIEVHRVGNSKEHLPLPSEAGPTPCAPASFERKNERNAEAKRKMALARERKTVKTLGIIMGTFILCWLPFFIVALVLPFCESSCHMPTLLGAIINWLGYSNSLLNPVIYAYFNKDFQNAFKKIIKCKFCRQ
# 5-HT2A receptor = 5-HT2A receptor (Homo sapiens, UniProt P28223); conditions: cited from earlier work
# 5-HT1B receptor = 5-HT1B receptor (Homo sapiens, UniProt P28222); conditions: cited from earlier work
# 5-HT1E receptor = 5-HT1E receptor (Homo sapiens, UniProt P28566); conditions: cited from earlier work
# 5-HT2B receptor = 5-HT2B receptor (Homo sapiens, UniProt P41595); conditions: cited from earlier work
# 5-HT2C receptor = biological target: T2, 5-HT2C receptor (Homo sapiens, UniProt P28335); conditions: cited from earlier work
# T2 sequence (P28335 33-458): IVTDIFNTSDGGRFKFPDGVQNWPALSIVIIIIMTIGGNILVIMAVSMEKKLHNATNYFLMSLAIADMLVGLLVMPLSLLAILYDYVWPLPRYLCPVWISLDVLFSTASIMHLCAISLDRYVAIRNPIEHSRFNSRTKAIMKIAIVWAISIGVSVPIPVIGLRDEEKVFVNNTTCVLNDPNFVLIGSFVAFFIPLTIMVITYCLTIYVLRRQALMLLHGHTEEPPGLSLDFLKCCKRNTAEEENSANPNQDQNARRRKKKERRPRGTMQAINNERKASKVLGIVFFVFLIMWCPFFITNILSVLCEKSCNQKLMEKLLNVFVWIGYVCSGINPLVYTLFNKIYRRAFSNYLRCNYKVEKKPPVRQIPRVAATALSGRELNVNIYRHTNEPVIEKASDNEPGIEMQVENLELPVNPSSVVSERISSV
# 5-HT6 receptor = 5-HT6 receptor (Homo sapiens, UniProt P50406); conditions: cited from earlier work
# 5-HT7 receptor = 5-HT7 receptor (Homo sapiens, UniProt P34969); conditions: cited from earlier work
# C57BL/6NJ mice [1] = test: hypothermia bioassay for blood-brain barrier penetration in mice
# Description: (§1) In some embodiments, the hypothermia bioassay described herein is used to determine whether a drug passes the BBB.
# (§2) Thus, if mice developed hypothermia following administration of a drug, the drug was determined to cross the blood-brain barrier. […] Both drugs were formulated using 5% Kolliphor® HS-15 and 5% NMP in saline as a vehicle, as using dimethyl sulfoxide (DMSO), a standard solvent, caused hypothermia by itself.
# (§3) The temperature of mice was then monitored for 120 minutes following injection.
# C57BL/6NJ mice [2] = conditions: mouse, in vivo, iv, 10 mg/kg
# Description: as §1, §2, §3
# Sequence of 5-HT1B receptor (P28222 whole entry): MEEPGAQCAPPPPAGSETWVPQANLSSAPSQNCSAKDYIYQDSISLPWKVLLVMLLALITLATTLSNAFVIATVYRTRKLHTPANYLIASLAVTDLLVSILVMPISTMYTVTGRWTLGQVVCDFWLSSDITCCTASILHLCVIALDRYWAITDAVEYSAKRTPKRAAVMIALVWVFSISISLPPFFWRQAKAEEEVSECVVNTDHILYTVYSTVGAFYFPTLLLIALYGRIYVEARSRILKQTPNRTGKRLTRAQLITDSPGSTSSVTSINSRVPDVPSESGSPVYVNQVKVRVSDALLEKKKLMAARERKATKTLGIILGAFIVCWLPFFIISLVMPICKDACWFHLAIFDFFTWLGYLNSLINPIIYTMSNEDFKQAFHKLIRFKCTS
# Sequence of 5-HT2A receptor (P28223 whole entry): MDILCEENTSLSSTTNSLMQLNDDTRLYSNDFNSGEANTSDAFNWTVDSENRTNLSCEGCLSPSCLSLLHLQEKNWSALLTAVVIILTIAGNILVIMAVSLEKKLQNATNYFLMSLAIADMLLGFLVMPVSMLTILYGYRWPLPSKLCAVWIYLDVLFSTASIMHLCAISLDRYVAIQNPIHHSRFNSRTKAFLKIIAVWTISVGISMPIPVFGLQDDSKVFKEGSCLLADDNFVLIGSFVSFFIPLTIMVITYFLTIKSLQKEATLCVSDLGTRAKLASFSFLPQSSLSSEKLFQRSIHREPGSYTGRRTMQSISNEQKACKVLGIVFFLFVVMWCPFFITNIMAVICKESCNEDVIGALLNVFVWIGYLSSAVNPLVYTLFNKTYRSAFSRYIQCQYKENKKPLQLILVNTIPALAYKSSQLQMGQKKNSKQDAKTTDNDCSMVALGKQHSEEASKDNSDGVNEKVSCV
# Sequence of 5-HT2B receptor (P41595 whole entry): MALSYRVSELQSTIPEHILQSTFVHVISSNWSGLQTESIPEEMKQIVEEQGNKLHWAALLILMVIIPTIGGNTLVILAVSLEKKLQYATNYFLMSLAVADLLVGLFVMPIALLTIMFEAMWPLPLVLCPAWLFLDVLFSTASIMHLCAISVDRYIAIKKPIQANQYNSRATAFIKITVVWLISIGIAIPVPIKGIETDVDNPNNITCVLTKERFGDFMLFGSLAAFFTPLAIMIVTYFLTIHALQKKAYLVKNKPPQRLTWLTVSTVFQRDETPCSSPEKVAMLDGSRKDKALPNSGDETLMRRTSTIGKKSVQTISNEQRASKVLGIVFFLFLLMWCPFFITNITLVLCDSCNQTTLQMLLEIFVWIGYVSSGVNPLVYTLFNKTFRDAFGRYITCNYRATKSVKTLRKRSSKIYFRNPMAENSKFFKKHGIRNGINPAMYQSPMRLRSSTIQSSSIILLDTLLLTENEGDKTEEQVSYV
# Sequence of 5-HT7 receptor (P34969 whole entry): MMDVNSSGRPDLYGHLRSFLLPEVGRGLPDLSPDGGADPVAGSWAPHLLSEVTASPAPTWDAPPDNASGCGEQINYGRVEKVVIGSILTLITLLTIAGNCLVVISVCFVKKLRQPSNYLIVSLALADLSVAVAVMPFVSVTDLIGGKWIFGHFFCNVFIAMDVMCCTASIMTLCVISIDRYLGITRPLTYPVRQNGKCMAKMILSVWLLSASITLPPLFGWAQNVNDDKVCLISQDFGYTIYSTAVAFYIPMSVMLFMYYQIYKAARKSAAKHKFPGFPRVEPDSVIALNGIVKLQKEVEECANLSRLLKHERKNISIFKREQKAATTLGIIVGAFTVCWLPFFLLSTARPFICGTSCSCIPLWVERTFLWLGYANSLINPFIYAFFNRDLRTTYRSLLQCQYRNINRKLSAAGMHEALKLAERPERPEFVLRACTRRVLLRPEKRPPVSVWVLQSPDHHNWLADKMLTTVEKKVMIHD
# Sequence of 5-HT6 receptor (P50406 whole entry): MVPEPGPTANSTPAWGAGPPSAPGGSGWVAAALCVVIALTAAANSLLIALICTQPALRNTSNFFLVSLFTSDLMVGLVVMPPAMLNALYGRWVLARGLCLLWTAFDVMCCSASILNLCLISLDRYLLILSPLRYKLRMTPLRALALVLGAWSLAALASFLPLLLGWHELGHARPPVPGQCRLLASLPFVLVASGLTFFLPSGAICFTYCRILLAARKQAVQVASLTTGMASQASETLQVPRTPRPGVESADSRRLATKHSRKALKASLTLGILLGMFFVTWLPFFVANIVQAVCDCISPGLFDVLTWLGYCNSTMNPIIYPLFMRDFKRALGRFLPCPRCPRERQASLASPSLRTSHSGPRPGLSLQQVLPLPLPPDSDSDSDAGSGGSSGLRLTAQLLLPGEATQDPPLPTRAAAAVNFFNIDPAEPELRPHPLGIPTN
# Sequence of 5-HT1E receptor (P28566 whole entry): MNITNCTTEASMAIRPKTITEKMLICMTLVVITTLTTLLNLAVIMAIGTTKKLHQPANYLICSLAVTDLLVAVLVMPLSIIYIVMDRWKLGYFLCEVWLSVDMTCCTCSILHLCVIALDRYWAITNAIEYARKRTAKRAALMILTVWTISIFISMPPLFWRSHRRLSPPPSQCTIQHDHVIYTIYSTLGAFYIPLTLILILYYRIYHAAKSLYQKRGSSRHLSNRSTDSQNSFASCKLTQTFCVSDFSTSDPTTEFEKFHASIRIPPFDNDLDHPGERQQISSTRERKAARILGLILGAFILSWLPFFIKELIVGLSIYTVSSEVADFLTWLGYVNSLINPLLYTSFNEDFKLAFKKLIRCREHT
structure (smiles),measurement,setting,value
COc1ccc(CNC(=O)/C=C/c2ccc3[nH]cc(CCN(C)C)c3c2)cc1 [GR46611],central hypothermia,guinea pigs; injected directly into the lateral ventricles of guinea pigs,caused central hypothermia
"CNC(=O)c1ccc2c(c1)CCO[C@H]2CCN1CCN(c2ccc(OC)cc2)CC1 [PNU-109291, (S)-3,4-Dihydro-1-[2-[4-(4-methoxyphenyl)-1-piperazinyl]ethyl]-N-methyl-1H-2-benzopyran-6-carboxamide]",volitional cocaine-taking (total infusions of cocaine self-administered),"mice addicted to cocaine; intravenous pre-treatment, 10 mg/kg body weight, before IVSA session",significant dose effect; also recorded: reduced volitional cocaine-taking behavior
same,inactive lever presses,"mice addicted to cocaine; intravenous pre-treatment, range of doses",no differences in inactive lever presses; also recorded: no effect
same,"cocaine self-administration, dose dependence","mice addicted to cocaine; range of doses, cocaine-addicted mice",dose-dependent decrease in cocaine self-administration
same,selectivity for 5-HTR1D over 5-HT1A receptor,5-HT1A receptor,> 600 -fold
same,selectivity for 5-HTR1D over 5-HT2A receptor,5-HT2A receptor,> 600 -fold
same,activity at 5-HT1B receptor,5-HT1B receptor,no activity
same,activity at 5-HT1E receptor,5-HT1E receptor,no activity
same,activity at 5-HT2B receptor,5-HT2B receptor,no activity
same,activity at 5-HT2C receptor,5-HT2C receptor,no activity
same,activity at 5-HT6 receptor,5-HT6 receptor,no activity
same,activity at 5-HT7 receptor,5-HT7 receptor,no activity
same,central hypothermia,"C57BL/6NJ mice [1]; intravenous administration in mice, dose not given",caused central hypothermia at levels comparable to a known BBB-permeable drug
same,central hypothermia (internal temperature),"C57BL/6NJ mice [1]; intravenous injection, 10 mg/kg, temperature monitored for 120 minutes, vehicle 5% Kolliphor HS-15 and 5% NMP in saline",induced central hypothermia
same,"blood-brain barrier penetration, inferred from hypothermia","C57BL/6NJ mice [1]; intravenous, 10 mg/kg, mice",can bypass the blood-brain barrier; also recorded: penetrates the blood-brain barrier
CNS(=O)(=O)Cc1ccc2[nH]cc(CCN(C)C)c2c1 [sumatriptan],central hypothermia,"guinea pigs; injected subcutaneously, guinea pigs",does not
CN(C)CCc1c[nH]c2ccc(C[C@H]3COC(=O)N3)cc12 [zolmitriptan],"blood-brain barrier penetration, inferred from hypothermia",C57BL/6NJ mice [2],can bypass the blood-brain barrier
